Results on 46 compounds are retold here after PubChem BioAssay AID489010 (Southern Research Specialized Biocontainment Screening …, 2010).

Calls of active or inactive are those of the source. The rule behind the calls is not given here.

For assay [1], the system named is M. tuberculosis H37Rv growth inhibition. In words: M. tuberculosis H37Rv growth inhibition, dose response, strain H37Rv (AID 489010). As to conditions: for IC50: measured here: H37Rv growth IC50.
Test in assay [2]: as above
To be noted: M. tuberculosis H37Rv growth inhibition; at 100 µM (top of the series).

The IC50 is the concentration at which inhibition is half-maximal. Low readings indicate greater potency, high ones weaker potency. In turn, `Cc1ccc(Sc2ccc(NC(=O)CCl)cc2)c(C)c1` showed an IC50 in assay [1] of 17.7 µM.

In assay [1], `Cc1ccc(C(=O)OCn2ncc(Cl)c(Cl)c2=O)cc1` displayed an IC50 of 42.3 µM.

In turn, `Cn1c(O)c(C2=NN(C(=O)CCl)C(c3ccccc3)C2)c(=O)n(C)c1=O` (stereo not drawn) registered an IC50 in assay [1] of 82.7 µM.

On to `CC(=O)n1cc(N(C(=O)CCl)c2ccc([N+](=O)[O-])cc2)c2ccccc21`, for which the IC50 in assay [1] is 3.24 µM. Against the preceding compound, the IC50 is about 26-fold lower.

With `O=C(Cc1cc(=O)[nH][nH]1)N/N=C/c1ccccc1[N+](=O)[O-]`, the growth inhibition in assay [2] was -0.39% (inactive).

`O=C(CCl)N(c1ccc(Cl)cc1)c1c[nH]c2ccccc12` yielded an IC50 in assay [1] of 1.91 µM.

Take `Cc1ccc(SCC2=NNC(=O)C2)cc1`: the growth inhibition in assay [2] was 5.45% (inactive).

In the case of `O=C(CCl)N1c2ccccc2OCC1c1ccccc1` (stereo not drawn), the 50% inhibitory concentration (IC50) in assay [1] stood at 1.69 µM.

`O=C(NC1=C(NC2CCS(=O)(=O)C2)C(=O)c2ccccc2C1=O)c1ccccc1` (stereo not drawn): the IC50 in assay [1] is 50.7 µM.

The compound `COc1ccc2nc(C)cc(Sc3nc4ccccc4s3)c2c1` displayed an IC50 in assay [1] of 42.3 µM.

Take `CCN(CC)CCNC(=O)c1ccc2c(c1NCCO)C(=O)c1ccccc1C2=O`: the IC50 in assay [1] was greater than 100 µM.

Regarding `Fc1ccc(Oc2nc(-c3ccccc3)nnc2C(F)(F)F)cc1`, the half-inhibitory concentration (IC50) in assay [1] was greater than 100 µM.

In assay [1], `Cc1oc2c(c1C(=O)N1CCOCC1)C(=O)c1ccccc1C2=O` showed an IC50 of 18 µM.

On to `COc1cccc(N(C(=O)CCl)C(C(=O)NCCc2ccccc2)c2cccs2)c1` (stereo not drawn), for which the IC50 in assay [1] stood at 19.1 µM.

`COC(=O)c1sc(-c2ccc(Cl)cc2)cc1NC(=O)/C=C/C(=O)O` returned an IC50 in assay [1] of 41.8 µM. Against the preceding compound, the IC50 is about 2.2-fold higher.

In turn, `CC(NC(=O)COC(=O)c1cc(NS(=O)(=O)c2ccc(Cl)c([N+](=O)[O-])c2)ccc1O)C1CC2CCC1C2` (stereo not drawn) showed an IC50 in assay [1] of 52.1 µM. This IC50 and that of the compound before are within 1.5-fold of each other.

As for `CC(C)(C)c1csc(Sc2ccc([N+](=O)[O-])cn2)n1`, in assay [1], the IC50 amounted to 51 µM.

`Cc1[nH]n(-c2ccccc2)c(=O)c1C(C[N+](=O)[O-])c1ccc(F)cc1` (stereo not drawn) gave an IC50 in assay [1] of 19.6 µM.

Regarding `Cc1oc2c(c1C(=O)NCc1cccnc1)C(=O)c1ccccc1C2=O`, the IC50 in assay [1] is less than 0.2 µM.

In assay [1], `Cc1ccc(CS(=O)(=O)c2ncc(Cl)c(C(=O)Nc3nnc(C(C)C)s3)n2)cc1` showed an IC50 of 53.5 µM.

Regarding `Cc1ccc(C(=O)Oc2ccc([N+](=O)[O-])cc2)cc1S(=O)(=O)N1CCCCCC1`, the IC50 in assay [1] is 46.6 µM.

Turning to `Cc1ccc(Sc2ccc(NC(=O)CCl)cc2)cc1C`, the IC50 in assay [1] was found to be 14.4 µM.

As usually defined, the IC90 is the point of the concentration-response curve where the effect stands at 90%. Consider `C(=N\Nc1nncc2ccccc12)/c1ccccn1`, for which, in assay [1], the concentration for an effect of 90% (IC90) is 19.8 µM and the IC50 turned out to be 15.9 µM.

`COc1cc2c(cc1OC)C(c1cc(Br)ccc1F)N(C(=O)CCl)CC2` (stereo not drawn) showed an IC50 in assay [1] of 5.91 µM.

As to `Cc1nc2c(=O)n(C)c(=O)nc-2n(C)n1`, the IC50 in assay [1] turned out to be 1.9 µM.

`CC(=O)n1cc(N(C(=O)CCl)c2ccccc2)c2ccccc21` registered an IC50 in assay [1] of 2.14 µM.

As for `COc1ccc(N(C(=O)CCl)C(C(=O)NCCc2ccccc2)c2cccs2)cc1` (stereo not drawn), the IC50 in assay [1] came out at 7.8 µM.

As for `C/C(=N\NC(=O)c1ccncc1)c1cc2ccccc2oc1=O`, the IC50 in assay [1] came out at 0.29 µM.

As for `Clc1ccc(-n2nnnc2Sc2ncnc3sccc23)cc1`, the IC50 in assay [1] came out at 5.98 µM.

For the compound `Cc1c(/C=N/Nc2nc3ccccc3[nH]2)c2ccccc2n1C`, in assay [1], the IC90 was 16.2 µM and the IC50 stood at 9.5 µM.

`Cc1ccc(C)c(Sc2ccc(NC(=O)CCl)cc2)c1`: the IC50 in assay [1] turned out to be 22.5 µM. This counts as double-digit micromolar.

Turning to `CCCCCCCCCCn1c2c(c(=N)c3c1CCC3)CCC2`, the IC50 in assay [1] turned out to be 2.16 µM.

In assay [1], `O=C(NC(NC(=S)Nc1ccc(Cl)cc1Cl)C(Cl)(Cl)Cl)c1cccc([N+](=O)[O-])c1` (stereo not drawn) gave an IC50 of 9.33 µM.

With `CC(CCc1ccccc1)NC(=O)COC(=O)c1cc(NS(=O)(=O)c2ccc(Cl)c([N+](=O)[O-])c2)ccc1O` (stereo not drawn), the concentration for half-maximal inhibition (IC50) in assay [1] is greater than 100 µM.

`Cc1ccc(N(NC(=O)C(O)(c2ccccc2)c2ccccc2)C(=O)CCl)cc1` displayed an IC50 in assay [1] of 12 µM.

Regarding `Cc1ccc2c(c1)c1c3n2CCN(C(=O)CCl)C3CCC1` (stereo not drawn), the IC50 in assay [1] was found to be 1.39 µM.

`Cc1ccccc1-n1ncc2c([N+](=O)[O-])cc([N+](=O)[O-])cc21`: in assay [1], the IC50 stood at 1.01 µM.

For `Cn1nc(-c2ccccn2)nc2c(=O)n(C)c(=O)nc1-2`, in assay [1], the IC50 amounted to 10.1 µM.

`CSc1nnc(NC(=O)c2nc(S(=O)(=O)Cc3cccc(C)c3)ncc2Cl)s1` had an IC50 in assay [1] of 23.8 µM.

As to `Cc1ccc(-n2nnc3c(SCC(=O)NCC4CCCO4)ncnc32)cc1` (stereo not drawn), the IC50 in assay [1] amounted to 46.4 µM.

`COC(=O)c1c(C)oc2ccc(N(C(=O)c3ccncc3)S(=O)(=O)c3ccc4ccccc4c3)cc12`: in assay [1], the IC50 came to 66.9 µM.

`Cn1nc(-c2ccc(Cl)cc2)nc2c(=O)n(C)c(=O)nc1-2` came in with an IC50 in assay [1] of 6.35 µM.

`Cc1ccc(N(C(=O)CCl)C(C(=O)NC2CCCCC2)c2cccnc2)cc1C` (stereo not drawn) returned an IC50 in assay [1] of 20.5 µM.

Take `COC(=O)c1sc(-c2ccc(C(C)(C)C)cc2)cc1NC(=O)/C=C/C(=O)O`: the IC50 in assay [1] was determined as 19.1 µM.

`CC(C)(C)C1CCc2sc(C(=O)NNC(=O)CCl)cc2C1` (stereo not drawn) came in with a concentration for half-maximal inhibition (IC50) in assay [1] of 6.29 µM.

The compound `Cc1cccc(Cn2nnc3c2C(=O)c2ccccc2C3=O)c1` showed an IC50 in assay [1] of 13.7 µM.
